# Results taken from patent EP1157024B1, “ACETYLENIC ORTHO-SULFONAMIDO AND PHOSPHINIC ACID AMIDO BICYCLIC HETEROARYL HYDROXAMIC ACIDS AS TACE INHIBITORS” (American Cyanamid Company, priority 1999, dated 2000).
# Like-named read-outs stand apart in the source and are kept apart here.
# Key:
# MMP-9 = MMP-9 (Homo sapiens, UniProt P14780); experiment: MMP-9 inhibition (thiopeptide or fluorescent peptide substrate); format: biochemical
# Procedure: (§1) The enzyme activity is measured by the rate of the color increase. The thiopeptide substrate is made up fresh as a 20 mM stock in 100% DMSO and the DTNB is dissolved in 100% DMSO as a 100 mM stock and stored in the dark at room temperature. Both the substrate and DTNB are diluted together to 1 mM with substrate buffer (50 mM HEPES pH 7.5, 5 mM CaCl2) before use. The stock of enzyme is diluted with buffer (50 mM HEPES, pH 7.5, 5 mM CaCl2, 0.02% Brij) to the desired final concentration.
# (§2) Alternatively, a fluorescent peptide substrate is used. In this test procedure, the peptide substrate contains a fluorescent group and a quenching group. Upon cleavage of the substrate by an MMP, the fluorescence that is generated is quantitated on the fluorescence plate reader. The assay is run in HCBC assay buffer (50mM HEPES, pH 7.0, 5 mM Ca^+2, 0.02% Brij, 0.5% Cysteine), with human recombinant MMP-1, MMP-9, or MMP-13. The substrate is dissolved in methanol and stored frozen in 1 mM aliquots. For the assay, substrate and enzymes are diluted in HCBC buffer to the desired concentrations. Compounds are added to the 96 well plate containing enzyme and the reaction is started by the addition of substrate.
# (§3) For either the thiopeptide or fluorescent peptide test procedures, the slope of the line is calculated and represents the reaction rate. The linearity of the reaction rate is confirmed (r^2 >0.85).
# [1] = target: TNF-α converting enzyme (TACE) (Homo sapiens, UniProt P78536); experiment: TACE inhibition (fluorescent peptidyl substrate); format: biochemical
# Procedure: Using 96-well black microtiter plates, each well receives a solution composed of 10 µL TACE (final concentration 1µg/mL), 70µL Tris buffer, pH 7.4 containing 10% glycerol (final concentration 10 mM), and 10 µL of test compound solution in DMSO (final concentration 1µM, DMSO concentration <1%) and incubated for 10 minutes at room temperature.
# The reaction is read (excitation 340 nm, emission 420 nm) for 10 min. and the increase in fluorescence over time is plotted as a linear line. The slope of the line is calculated and represents the reaction rate.
# The linearity of the reaction rate is confirmed (r^2 >0.85). The mean (x±em) of the control rate is calculated and compared for statistical significance (p<0.05) with drug-treated rates using Dunnett's multiple comparison test.
# THP-1 cells = experiment: THP-1 soluble protein assay (human monocytic THP-1 cell differentiation assay); format: cell-based; conditions: read-out: THP % inhibition at 3µM, LPS-stimulated THP-1 cells
# Source text: Mitogenic stimulation of THP-1 cells cause differentiation into macrophage like cells with concomitant secretion of tumor necrosis factor (TNF-•) and TNF receptor (TNF-R p75/80 and TNF-R p55/60) and Interleukin-8 (IL-8), among other proteins. In addition, non-stimulated THP-1 cells shed both the p75/80 and the p55/60 receptors over time. […] THP-1 cells (from ATCC) are a human monocytic cell line which were obtained from the peripheral blood of a person with acute monocytic leukemia. They can be grown in culture and differentiated into macrophage like cells by stimulation with mitogens. For the assay, THP-1 cells are seeded from an ATCC stock which was previously grown and frozen back at 5 x 10^6/ml/vial. […] Each vial of cells are cultured for about two weeks prior to being used for an assay and then are used for only 4 to 6 weeks to screen compounds. Cells are subcultured on Mondays and Thursdays to a concentration of 1 x 10^5/ml. […] At the same time, […] of drug, vehicle or THP-1 media is plated in appropriate wells to give a final volume of 1.2 ml/well. […] Cell exposure to DMSO was limited to 0.1 % final concentration. Positive control wells were included in the experiment which had mitogen added but no drug. Vehicle control wells were included as well, which were identical to the positive control wells, except that DMSO was added to give a final concentration of 0.083%. Negative control wells were included in the experiment which had vehicle but no mitogen or drug added to the cells. Compounds can be evaluated for their effect on basal (non-stimulated) shedding of the receptors by replacing the LPS with […] of THP-1 media. Plates are placed into an incubator set at 5% CO2 and at 37 °C. After 4 hours of incubation, […] of tissue culture supernatant (TCS) is removed for use in an TNF-α ELISA. Following 24 hours of incubation, […] of TCS is removed and used for analysis in TNF-R p75/80, TNF-R p55/60 and IL-8 ELISAs. In addition, at the 24 hours timepoint, and the cells for each treatment group are collected by resuspension in 500 µl/well of THP-1 media and transferred into a FACS tube. Two ml/tube of a 0.5 mg/ml stock of propidium iodide (PI) (Boerhinger Mannheim cat. # 1348639) is added. The samples are run on a Becton Dickinson FaxCaliber FLOW cytometry machine and the amount of dye taken up by each cell is measured in the high red wavelength (FL3). Only cells with compromised membranes (dead or dying) can take up PI. The percent of live cells is calculated by the number of cells not stained with PI, divided by the total number of cells in the sample. The viability values calculated for the drug treated groups were compared to the viability value calculated for the vehicle treated mitogen stimulated group ("vehicle positive control") to determine the "percent change from control". This "percent change from control" value is an indicator of drug toxicity. The quantity of soluble TNF-α, TNF-R p75/80 and TNF-R p55/60 and IL-8 in the TCS of the THP-1 cell cultures are obtained with commercially available ELISAs from R&D Systems, by extrapolation from a standard curve generated with kit standards. The number of cells that either take up or exclude PI are measured by the FLOW cytometry machine and visualized by histograms using commercially available Cytologic software for each treatment group including all controls. […]
# MMP-13 = MMP-13 (Homo sapiens, UniProt P45452); experiment: MMP-13 inhibition (thiopeptide or fluorescent peptide substrate); format: biochemical
# Procedure: as §1, §2, §3
# Sequence of TNF-α converting enzyme (TACE) (P78536 215-824, species assumed): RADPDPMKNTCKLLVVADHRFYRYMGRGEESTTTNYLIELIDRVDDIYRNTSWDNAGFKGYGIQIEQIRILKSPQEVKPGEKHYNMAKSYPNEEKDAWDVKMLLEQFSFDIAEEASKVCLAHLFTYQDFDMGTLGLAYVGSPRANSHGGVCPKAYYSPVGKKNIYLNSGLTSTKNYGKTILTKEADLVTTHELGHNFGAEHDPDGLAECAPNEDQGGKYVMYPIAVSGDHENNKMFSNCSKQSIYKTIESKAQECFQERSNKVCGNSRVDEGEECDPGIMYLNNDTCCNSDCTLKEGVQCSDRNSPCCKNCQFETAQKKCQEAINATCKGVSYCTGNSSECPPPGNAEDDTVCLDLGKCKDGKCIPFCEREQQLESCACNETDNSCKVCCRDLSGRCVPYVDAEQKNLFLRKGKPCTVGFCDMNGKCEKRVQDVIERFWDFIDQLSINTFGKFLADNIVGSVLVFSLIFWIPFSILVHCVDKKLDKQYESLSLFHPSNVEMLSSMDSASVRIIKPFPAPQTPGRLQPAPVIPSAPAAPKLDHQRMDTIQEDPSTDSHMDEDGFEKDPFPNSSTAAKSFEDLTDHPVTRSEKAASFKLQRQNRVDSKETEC
# Sequence of MMP-9 (P14780 94-707): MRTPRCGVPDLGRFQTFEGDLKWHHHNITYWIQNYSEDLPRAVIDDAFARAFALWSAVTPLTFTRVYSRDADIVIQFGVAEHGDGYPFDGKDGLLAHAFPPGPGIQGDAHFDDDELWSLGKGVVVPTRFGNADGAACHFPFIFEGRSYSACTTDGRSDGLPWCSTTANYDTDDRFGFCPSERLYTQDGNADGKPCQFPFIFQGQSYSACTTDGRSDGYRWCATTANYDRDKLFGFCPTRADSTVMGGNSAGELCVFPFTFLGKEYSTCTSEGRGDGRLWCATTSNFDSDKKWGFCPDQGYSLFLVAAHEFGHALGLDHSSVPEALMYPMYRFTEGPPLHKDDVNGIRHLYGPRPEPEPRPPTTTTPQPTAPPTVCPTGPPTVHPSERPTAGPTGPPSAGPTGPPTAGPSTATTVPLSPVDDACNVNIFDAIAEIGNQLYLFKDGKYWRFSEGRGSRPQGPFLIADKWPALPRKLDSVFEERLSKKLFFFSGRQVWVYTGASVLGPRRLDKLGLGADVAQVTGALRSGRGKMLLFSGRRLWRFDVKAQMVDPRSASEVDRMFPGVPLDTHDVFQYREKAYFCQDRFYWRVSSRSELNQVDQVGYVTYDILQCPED
Structure (SMILES),IC50 (MMP-9),IC50 [1],inhibition at 3 µM (THP-1 cells),IC50 (MMP-13),IC50 (MMP-13; read-out: MMP-13 IC50),IC50 ([1]; read-out: TACE IC50)
"CC#CCOc1ccc(S(=O)(=O)N(C)c2c(C(=O)NO)cnc3c2c(C)nn3C)cc1 [Example 7, 4-[(4-But-2-ynyloxy-benzenesulfonyl)-methyl-amino]-1,3-dimethyl-1H-pyrazolo[3,4-b]pyridine-5-carboxylic acid hydroxyamide]",116 nM,30 nM,60%,,,
"CC#CCOc1ccc(S(=O)(=O)N(C)c2c(C(=O)NO)cnc3onc(C)c23)cc1 [Example 9, 4-[(4-But-2-ynyloxy-benzenesulfonyl)-methyl-amino]-3-methyl-isoxazolo[5,4-b]pyridine-5-carboxylic acid hydroxyamide]",244 nM,5.9 nM,57%,150 nM,,
"CC#CCOc1ccc(S(=O)(=O)N(C)c2c(C(=O)NO)cnc3c(OC)cccc23)cc1 [Example 11, 4-[(4-But-2-ynyloxy-benzenesulfonyl)-methyl-amino]-8-methoxy-quinoline-3-carboxylic acid hydroxyamide]",33 nM,17 nM,58%,,9.2 nM,
"CC#CCOc1ccc(S(=O)(=O)N(C)c2c(C(=O)NO)cnc3snc(C)c23)cc1 [Example 13, 4-[(4-But-2-ynyloxy-benzenesulfonyl)-methyl-amino]-3-methyl-isothiazolo[5,4-b]pyridine-5-carboxylic acid hydroxyamide]",95 nM,14 nM,42%,34 nM,,
"CC#CCOc1ccc(S(=O)(=O)N(C)c2c(C(=O)NO)cnc3c(Br)cccc23)cc1 [Example 99, 8-Bromo-4-[{[4-(2-butynyloxy)phenyl]sulfonyl} (methyl)amino]-N-hydroxy-3-quinolinecarboxamide]",,,32%,,27 nM,82 nM
